The record followed here is US10829530B2, “Analogues of VDAC1-derived peptides” (B. G. NEGEV TECHNOLOGIES AND APPLICATIONS LTD., AT …, priority 2015, dated 2020).

Series [1] relates to U-87MG cells. Put plainly: Intracranial-orthotopic U-87MG xenograft in nude mice (MRI tumor volume, survival). Type of series: in vivo, mouse. The following applies: administrated intravenously, inferred from effect on brain tumor.
Method: For the intracranial-orthotopic xenograft mouse model, U-87MG cells (8×10^4) were engrafted into a nude mouse brain using a stereotactic device. […] Mice were subjected to MRI and then sacrificed. Brains were excised and processed for IHC. Tumor volume was analyzed using VivoQuant 2.10 software.
25 and 32 days later, tumor growth was monitored by MRI (FIG. 11A).
The nature of series [2]: Peptide solubility (soluble peptide in supernatant, absorbance at 280 nm). The class given is physicochemical. As to the method:
The peptides were dissolved in 100% DMSO then diluted by about 10-fold to reduce DMSO to 10-11% and the peptide to 4.4 or 4 mM, and the amount of the soluble peptide was analyzed in the supernatant (SUP) following centrifugation to remove insoluble peptide.
The peptides were synthesized by GL Biochem (Shanghai, China) to >95% purity. […] Then the solutions were diluted to peptide concentration of 20 mg/ml (4.86 mM) by adding while mixing 95 μl of distilled water and the diluted solutions were incubated in 37° C. water bath for 30 minutes to allow further solubilization until the solutions became clear. The peptide solutions were then centrifuged for 5 min at 15,000 g and the supernatant of each preparation was transferred to fresh Eppendorf tube with low binding capacity. Aliquots of the obtained solution were taken for further analysis of peptide concentration.
Peptides were dissolved as described hereinabove. Concentration examined was 4 mM; solvent used was DDW/10% DMSO/150 mM NaCl (NaCl added later at a final concentration of 150 mM) as a common physiologically compatible solution for drug administration.
The molecular weight of Tf-D-LP=4111.67 g/mol. […] 8.5 μl DMSO 100% were added to the peptide to form a concentration of 40 mM, and the solution was incubated in a water bath at 37° C. for 15 min until the solution became clear. The solution obtained was diluted by about 10-fold with DDW reaching a final concentration of 4.4 mM (11.1% DMSO), incubated in a water bath at 37° C. for 15 min, and then incubated overnight at 4° C. […] Peptide concentration in each step was analyzed.
Peptide concentration was determined from the absorbance at 280 nm following its denaturation and using the following calculation:
Weight/volume (mg/ml) concentration was calculated according to the equation: mg peptide/ml=(AU×DF×Mw)/[(TrypW #×5560)+(TyrY #×1200)]: • AU—peptide absorbance measured • DF—dilution factor • Mw—Molecular weight • TrypW #—number of Tryptophan in the peptide sequence • TyrY #—number of Tyrosine in the peptide sequence

Series [3] concerns PANC-2 cells. Kind of series: Cell death induction in PANC-2 pancreatic cancer cells (PI staining, flow cytometry). The class given is cell-based, mouse. The note with it: PANC-2, serum-free medium, 6 h. As to the method: (§1) Cells in suspension were counted (2×10^6/ml) and treated on the same day whereas adherent cells were counted and seeded (1.5−2×10^5/ml) in 12 wells plate 16-24 h before treatment. Cells in suspension or adherent cells were incubated in serum-free medium (200 μl or 500 μl, respectively) with various concentrations of peptide of interest (for 90 min or 6 h, respectively) at 37° C. in the presence of 5% CO2. Cells were collected (adherent cells by trypsinization), centrifuged (1500×g, 5 min), washed once with PBS and analyzed for cell death using propidium iodide (PI) staining and flow cytometer (Beckton-Dickinson, San Jose, Calif.) and BD CellQuest Pro software.
(§2) PI solution was diluted with PBS to a final concentration of 0.5 mg/ml. 2.5 μl of the PI solution were added to each FACS tube, and the tubes were vortexed gently to homogenize the cell suspension. Cell viability was measured in the FACS channel FL3 and data were analyzed using CellQuest Pro software.
(§3) The human (PANC-1) and mouse (PANC-2) cancerous pancreatic cells were used in this assay. […] Cell death was analyzed by PI staining and percentage of cell death was measured by Flow Cytometery.
In general terms: A flow cytometer gives signals particle by particle.

Series [4] concerns GL-261 cells. Put plainly: Cell death induction in GL-261 glioma cells (PI staining, FACS). The class given is cell-based, mouse. The following applies: GL-261, serum-free medium, 6 h. On the procedure: as §1, §2
Series [5] relates to glioma-derived stem cell (GSC) line G7. Put plainly: Cell death induction in G7 glioma-derived stem cells (PI staining, flow cytometry). The class given is cell-based, human. The note with it: n=3, read-out: concentration for inducing 50% cell death (EC50). On the procedure: The G7 GSC cell line was grown using specific glioblastoma stem cell medium, as described previously (Pollard S M et al 2009. Cell Stem Cell. 4(6):568-580.)
The GSC-specific markers, Sox2, Musashi, and Nestin were highly expressed in G7, as compared to U-87MG cells, containing about 1% GSCs, thus confirming the stemness of the cells (FIG. 7B, 7C). Klf4 was expressed in both cell lines with its level in G7 slightly higher. […] Similar results were obtained when apoptosis was assayed using annexinV/PI staining and FACS analysis (FIG. 7E).

The subject of series [6] is B16F10.0 melanoma cells. Kind of series: Cell death induction in B16F10.0 melanoma cells (PI staining, FACS). Type of series: cell-based, mouse. The note with it: B16F10.0, serum-free medium, 6 h. As to the method:
as §1, §2
Cell death was analyzed by PI staining and FACS.

Series [7] has as its system PANC-1 cells. Put plainly: Cell death induction in PANC-1 pancreatic cancer cells (PI staining, flow cytometry). The note with it: PANC-1, serum-free medium, 6 h. Type of series: cell-based, human. As to the method: as §1, §2, §3
Series [8] concerns THP-1 cells. Kind of series: Cell death induction in THP-1 leukemia cells (PI staining, flow cytometry). The class given is cell-based, human. The following applies: THP-1, serum-free medium, 90 min, 37° C. As to the method: as §1, §2
Cells of human monocytic cell line derived from an acute monocytic leukemia patient (THP-1 cells, 400,000 cells per well) were used in this experiment.

For series [9], the system named is U-87MG. Type of series: cell-based. The note with it: Example 7, n=3, read-out: concentration for inducing 50% cell death (EC50).
Method: Human primary glioblastoma tumor-derived cell lines (U-87MG), at 6×10^5 cells per ml were incubated in a serum-free medium with the examined peptide at several concentrations for 6 h at 37° C. in the presence of 5% CO2. […] The cells were then trypsinized, centrifuged (1500×g, 5 min), washed with PBS and analyzed for cell death using PI staining and flow cytometer (Beckton-Dickinson, San Jose, Calif.) and BD CellQuest Pro software.
For series [10], the system named is BNL1ME cell line. Type of series: cell-based. The following applies: serum-free medium, 6 h; for EC50: read-out: EC50 of cell death. On the procedure: as §1, §2
Cells were incubated in a serum-free medium with each peptide type for 6 h at 37° C. in the presence of 5% CO2.

Series [11] has as its system A549. Kind of series: Peptide storage stability, read out as death of A549 cells (PI staining, FACS). The note with it: for activity kept after storage: assayed at 10 μM on A549. Type of series: cell-based. As to the method:
The peptide (0.5 mM in 5% DMSO) was incubated at −20° C., 4° C. or 25° C. for the indicated time, and then assayed (at 10 μM) for its capability to induce death of A549 using PI staining and FACS analysis. In untreated cells, cell death was 3%, while with the peptide, cell death was over 90% (n=2).
The assay conditions were as described in FIG. 8A above.

Each structure is given as a SMILES string. Where two headings read alike, the source gives them in different places.

Take `CC[C@H](C)[C@H](NC(=O)[C@H](Cc1ccc(O)cc1)NC(=O)[C@@H]1CCCN1C(=O)[C@H](CCCNC(=N)N)NC(=O)[C@H](Cc1c[nH]cn1)NC(=O)[C@@H](CO)NC(=O)[C@@H](Cc1c[nH]c2ccccc12)NC(=O)[C@H](NC(=O)[C@@H](Cc1c[nH]c2ccccc12)NC(=O)[C@@H](CCC(=O)O)NC(=O)[C@@H](CCCCN)NC(=O)[C@@H](CCCCN)NC(=O)[C@@H](CC(C)C)NC(=O)[C@@H](CCC(=O)O)NC(=O)[C@H](NC(=O)[C@@H](C)NC(=O)[C@H](NC(=O)[C@@H](CC(N)=O)NC(=O)[C@@H](CC(C)C)NC(=O)[C@@H](C)NC(=O)[C@@H](Cc1c[nH]c2ccccc12)NC(=O)[C@H](NC(=O)[C@@H](C)NC(=O)CNC(=O)[C@@H](CC(N)=O)NC(=O)[C@@H](CO)NC(=O)[C@@H](CC(N)=O)NC(=O)[C@@H](CCCCN)NC(=O)[C@@H](Cc1c[nH]c2ccccc12)NC(=O)[C@H](NC(=O)[C@@H](Cc1c[nH]c2ccccc12)NC(=O)[C@H](N)CCCCN)[C@H](C)O)[C@H](C)O)C(C)C)[C@H](C)O)[C@H](C)O)C(=O)N[C@@H](C)C(=O)N[C@@H](Cc1c[nH]cn1)C(=O)O` [Retro-Tf-D-LP4, D-Lys-D-Trp-D-Thr-D-Trp-D-Lys-D-Asn-D-Ser-D-Asn-D-Gly-D-Ala-D-Thr-D-Trp-D-Ala-D-Leu-D-Asn-D-Val-D-Ala-D-Thr-D-Glu-D-Leu-D-Lys-D-Lys-D-Glu-D-Trp-D-Thr-D-Trp-D-ser-His-Arg-Pro-Tyr-Ile-Ala-His]: the “crossing of the blood brain barrier (BBB)” value in series [1] was “can cross the BBB”. Moreover, in [2], the “solubility in 100% DMSO” value is “high solubility”. Further, the EC50 is approximately 4 µM in [3]; 2200 nM in [4]; 2500 ± 300 nM in [5]; 7 µM in [6]; approximately 4 µM in [7]; 4.5 µM in series [8]. Also, the EC50 is 1500 ± 300 nM in [9] and 2500 nM in series [10].

With `CC[C@H](C)[C@H](NC(=O)[C@H](C)NC(=O)[C@@H](N)Cc1c[nH]cn1)C(=O)N[C@@H](Cc1ccc(O)cc1)C(=O)N1CCC[C@H]1C(=O)N[C@@H](CCCNC(=N)N)C(=O)N[C@@H](Cc1c[nH]cn1)C(=O)N[C@H](CO)C(=O)N[C@H](Cc1c[nH]c2ccccc12)C(=O)N[C@@H](C(=O)N[C@H](Cc1c[nH]c2ccccc12)C(=O)N[C@H](CCC(=O)O)C(=O)N[C@H](CCCCN)C(=O)N[C@H](CCCCN)C(=O)N[C@H](CC(C)C)C(=O)N[C@H](CCC(=O)O)C(=O)N[C@@H](C(=O)N[C@H](C)C(=O)N[C@@H](C(=O)N[C@H](CC(N)=O)C(=O)N[C@H](CC(C)C)C(=O)N[C@H](C)C(=O)N[C@H](Cc1c[nH]c2ccccc12)C(=O)N[C@@H](C(=O)N[C@H](C)C(=O)NCC(=O)N[C@H](CC(N)=O)C(=O)N[C@H](CO)C(=O)N[C@H](CC(N)=O)C(=O)N[C@H](CCCCN)C(=O)N[C@H](Cc1c[nH]c2ccccc12)C(=O)N[C@@H](C(=O)N[C@H](Cc1c[nH]c2ccccc12)C(=O)N[C@H](CCCCN)C(=O)O)[C@H](C)O)[C@H](C)O)C(C)C)[C@H](C)O)[C@H](C)O` [Tf-D-LP4, His-Ala-Ile-Tyr-Pro-Arg-His-D-Ser-D-Trp-D-Thr-D-Trp-D-Glu-D-Lys-D-Lys-D-Leu-D-Glu-D-Thr-D-Ala-D-Val-D-Asn-D-Leu-D-Ala-D-Trp-D-Thr-D-Ala-D-Gly-D-Asn-D-Ser-D-Asn-D-Lys-D-Trp-D-Thr-D-Trp-D-Lys], in series [2] (100% DMSO), the “solubility in 100% DMSO” value is “high solubility”. For the same compound, the “soluble peptide out of the total peptide content” value in series [2] (DMSO concentration reduced to 10%, about 4 mM peptide) was “about 10%”. Further, the EC50 in [4] worked out at 3300 nM; in series [8], 8 µM; in [10] it was 2700 nM. Also, the “maximal cell death induction” value in [10] is reported as 70%. Moreover, the “activity kept after storage” value in [11] (0.5 mM in 5% DMSO stored at 4° C. or 25° C.) is listed as 75%; in series [11] (0.5 mM in 5% DMSO stored at −20° C.) it was “full activity”. The cell death entry in [11] (A549, 10 μM peptide, n=2, untreated cells 3%) is “over 90%”.
